The target of the assay is T1, AR (Homo sapiens, UniProt P10275).
T1 construct: endogenous in cells; host or cells: VCaP cells
T1 sequence (P10275 1-920): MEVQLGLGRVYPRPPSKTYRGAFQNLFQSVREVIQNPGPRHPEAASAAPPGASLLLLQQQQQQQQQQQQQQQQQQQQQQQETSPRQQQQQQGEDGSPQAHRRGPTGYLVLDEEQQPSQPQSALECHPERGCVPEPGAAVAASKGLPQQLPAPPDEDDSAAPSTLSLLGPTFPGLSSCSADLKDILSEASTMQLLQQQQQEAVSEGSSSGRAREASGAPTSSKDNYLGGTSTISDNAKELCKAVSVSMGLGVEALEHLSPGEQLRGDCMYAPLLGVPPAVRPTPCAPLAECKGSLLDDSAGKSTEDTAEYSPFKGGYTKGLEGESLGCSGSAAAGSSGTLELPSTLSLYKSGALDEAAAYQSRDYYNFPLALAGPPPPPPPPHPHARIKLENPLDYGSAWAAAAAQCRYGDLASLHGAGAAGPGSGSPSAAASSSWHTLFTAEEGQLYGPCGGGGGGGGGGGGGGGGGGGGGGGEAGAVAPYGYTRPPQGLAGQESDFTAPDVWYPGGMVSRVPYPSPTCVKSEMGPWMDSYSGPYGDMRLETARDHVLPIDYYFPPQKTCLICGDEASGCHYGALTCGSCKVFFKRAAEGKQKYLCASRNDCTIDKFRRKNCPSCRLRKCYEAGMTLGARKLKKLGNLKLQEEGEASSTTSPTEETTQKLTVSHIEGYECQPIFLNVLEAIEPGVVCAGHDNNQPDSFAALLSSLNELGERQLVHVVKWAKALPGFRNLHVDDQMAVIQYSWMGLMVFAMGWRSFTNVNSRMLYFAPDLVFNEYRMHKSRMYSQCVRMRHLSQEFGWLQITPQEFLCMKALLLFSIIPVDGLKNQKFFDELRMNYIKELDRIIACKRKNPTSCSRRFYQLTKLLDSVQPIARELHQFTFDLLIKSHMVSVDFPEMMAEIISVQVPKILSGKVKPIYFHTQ
Put plainly: VCAP AR Degradation Assay. In kind it is cell-based. The conditions noted are these: for Y (AR degradation efficiency, % of DMSO control): class symbols *; for DC50: class symbols A-C. The method in brief: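 VCaP cells treated 24 h at 37 °C with a 10-point 1:3 series (top 5 μM final; 0.1% DMSO control). Lysate AR measured by sandwich ELISA, normalized to DMSO as percent of control; DC50, EC50 and lowest AR level (Y) from four-parameter logistic fit.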

Where two headings read alike, the source gives them in different places.

The DC50 is the concentration at which degradation of the target reaches its halfway point.

`CC(F)(F)c1cc(N2C(=S)N(c3cnc(C#N)c(C(F)(F)F)c3)C(=O)C2(C)C)ccc1OCCN1CCN(CC(=O)Nc2cccc(NC3CCC(=O)NC3=O)c2)CC1` (stereo not drawn) [Example 60, 2-(4-(2-(4-(3-(6-cyano-5-(trifluoromethyl)pyridin-3-yl)-5,5-dimethyl-4-oxo-2-thioxoimidazolidin-1-yl)-2-(1,1-difluoroethyl)phenoxy)ethyl)piperazin-1-yl)-N-(3-(2,6-dioxopiperidin-3-ylamino)phenyl)acetamide]: the “Y (AR degradation efficiency, % of DMSO control)” value is “* (0<Y<=25%)”. In addition, for the setting “read-out: DC50”, the DC50 was less than 100 nM.
For `CC[C@@H]1CN(CCOc2ccc(N3C(=S)N(c4cnc(C#N)c(C(F)(F)F)c4)C(=O)C34CCC4)cc2C2CC2)CCN1CC(=O)Nc1cccc(NC2CCC(=O)NC2=O)c1` (stereo partly drawn) [Example 262, 2-((R)-4-(2-(4-(7-(6-cyano-5-(trifluoromethyl)pyridin-3-yl)-8-oxo-6-thioxo-5,7-diazaspiro[3.4]octan-5-yl)-2-cyclopropylphenoxy)ethyl)-2-ethylpiperazin-1-yl)-N-(3-(2,6-dioxopiperidin-3-ylamino)phenyl)acetamide], in that order: “* (0<Y<=25%)” and 100 to 500 nM.
For the compound `CCc1cc(N2C(=S)N(c3ccc(C#N)c(C(F)(F)F)c3)C(=O)C2(C)C)ccc1OCCN1C[C@@H](C)N(CC(=O)Nc2cccc(N[C@H]3CCC(=O)NC3=O)c2)[C@@H](C)C1` [Example 285, 2-((2R,6S)-4-(2-(4-(3-(4-cyano-3-(trifluoromethyl)phenyl)-5,5-dimethyl-4-oxo-2-thioxoimidazolidin-1-yl)-2-ethylphenoxy)ethyl)-2,6-dimethylpiperazin-1-yl)-N-(3-((S)-2,6-dioxopiperidin-3-ylamino)phenyl)acetamide], the “Y (AR degradation efficiency, % of DMSO control)” value is reported as “* (0<Y<=25%)”. Moreover, where the note is “read-out: DC50”, the DC50 is less than 100 nM.
`CCc1cc(N2C(=S)N(c3cnc(C#N)c(C(F)(F)F)c3)C(=O)C2(C)C)ccc1OCCN1CC2CCC(C1)N2CC(=O)Nc1cc(Cl)cc(NC2CCC(=O)NC2=O)c1` (stereo not drawn) [Example 173, N-(3-chloro-5-(2,6-dioxopiperidin-3-ylamino)phenyl)-2-(3-(2-(4-(3-(6-cyano-5-(trifluoromethyl)pyridin-3-yl)-5,5-dimethyl-4-oxo-2-thioxoimidazolidin-1-yl)-2-ethylphenoxy)ethyl)-3,8-diazabicyclo[3.2.1]octan-8-yl)acetamide]: the “Y (AR degradation efficiency, % of DMSO control)” value is “* (0<Y<=25%)” and the DC50 was less than 100 nM.
For `CCc1cc(N2C(=S)N(c3cnc(C#N)c(C(F)(F)F)c3)C(=O)C23CCC3)ccc1OCCN1CCN(C2(C(=O)Nc3cccc(NC4CCC(=O)NC4=O)c3)CC2)CC1` (stereo not drawn) [Example 188, 1-(4-(2-(4-(7-(6-cyano-5-(trifluoromethyl)pyridin-3-yl)-8-oxo-6-thioxo-5,7-diazaspiro[3.4]octan-5-yl)-2-ethylphenoxy)ethyl)piperazin-1-yl)-N-(3-(2,6-dioxopiperidin-3-ylamino)phenyl)cyclopropanecarboxamide], the “Y (AR degradation efficiency, % of DMSO control)” value is on record as “* (0<Y<=25%)”. Further, the DC50 (read-out: DC50) was less than 100 nM.
For `CC1(C)C(=O)N(c2cnc(C#N)c(C(F)(F)F)c2)C(=S)N1c1ccc(OCCN2CCN(CC(=O)Nc3cc(NC4CCC(=O)NC4=O)ccc3F)CC2)c(CC(F)F)c1` (stereo not drawn) [Example 66, 2-(4-(2-(4-(3-(6-cyano-5-(trifluoromethyl)pyridin-3-yl)-5,5-dimethyl-4-oxo-2-thioxoimidazolidin-1-yl)-2-(2,2-difluoroethyl)phenoxy)ethyl)piperazin-1-yl)-N-(5-(2,6-dioxopiperidin-3-ylamino)-2-fluorophenyl)acetamide], in that order: “* (0<Y<=25%)” and less than 100 nM.

Source of the values: US12404241B2 (Celgene Corporation, priority 2018, dated 2025).
